From PMC4529466, “Intradermal insulin infusion achieves faster insulin action than subcutaneous infusion for 3-day wear” (Drug Delivery and Translational Research, 2015)

System: blood glucose
Experiment: Postprandial blood glucose pharmacodynamics after meal bolus, 3-day ID vs SC infusion
Assay type: in vivo, human (T1DM patients)
Conditions: ID; for BGavg0–1 / BGmax0–1 / ΔAUC-BG0–1 / ΔBGmax0–1 / BGavg0–1.5 / BGmax0–1.5 / ΔAUC-BG0–1.5 / ΔBGmax0–1.5 / BGavg0–2 / BGmax0–2 / ΔAUC-BG0–2 / ΔBGmax0–2 / BGavg0–4 / BGmax0–4 / ΔAUC-BG0–4 / ΔBGmax0–4 / BG1 / ΔBG1 / BG1.5 / ΔBG1.5 / BG2 / ΔBG2 / BG4 / ΔBG4: mean ± SD; for BG1 / ΔBG1: at 1 h; for BG1.5 / ΔBG1.5: at 1.5 h; for BG2 / ΔBG2: at 2 h; for BG4 / ΔBG4: at 4 h
Text: This was a single center, open-label, two-period crossover study, randomized by infusion order, in T1DM patients on continuous subcutaneous insulin infusion (CSII). The protocol was approved by an independent ethics committee (Ethikkommission der Ärztekammer Nordrhein, Düsseldorf, Germany), appropriate regulatory bodies (German Federal Institute for Drugs and Medical Devices (BfArM)), and conducted in compliance with good clinical practice (GCP), the Declaration of Helsinki, and applicable regulatory requirements.
The study was completed over a multi-week period consisting of three study visits: a screening visit (V1) and two interventional visits (V2 and V3). After establishing eligibility and enrollment, patients received treatment during two interventional visits: one SC and one ID basal/bolus infusion of insulin aspart (NovoRapid® U-100, Novo Nordisk, Copenhagen, Denmark) administered over 3 days in a randomized order.
Individual meal bolus doses were determined based on patient self-reported insulin to carbohydrate ratios and insulin sensitivity, historical self-reported insulin usage for meal coverage, and clinician review and adjustment of insulin usage during the in-clinic BG stabilization period the evening prior to the first morning meal. Basal insulin infusion rates were initiated based on the patient’s known daily delivery profile and could be adjusted by the clinician to maintain levels within 70–160 mg/dL according to a predetermined sliding scale and hourly changes in glycemia. A continuous glucose monitor (Seven Plus®, DexCom Inc., San Diego, CA) calibrated per manufacturer’s recommendations was applied to continuously monitor glycemia as a safety measure, in addition to periodic blood sampling for BG determination.
After maintaining targeted blood glucose range during the preceding night, bolus insulin doses were administered via the respective infusion catheter prior to standardized breakfast and lunch test meals on each of the three treatment days. Each meal insulin bolus was calculated based on the patient’s insulin sensitivity and previous hours change in BG per sliding scale then delivered immediately prior to breakfast (t = 0 min) and lunch (t = 360 min) consumption. Breakfast was a high glycemic index (60 g carbohydrates) solid meal, and lunch was a mixed meal based on the individual’s calculated daily energy intake and equivalent in caloric composition by day. Breakfast and lunch meals were consumed within 15 min followed by serial blood sampling with BG monitoring for a period of 6 and 4 h, respectively. Patients were asked to remain sedentary for 2 h after meals. Identical study procedures were utilized for the remaining dosing visit days (Fig. 2).
To assess insulin absorption kinetics and glycemic response, blood samples for measurements of insulin aspart and blood glucose in serum were drawn at predefined time points throughout dosing visits. Serial samples for safety BG determination, but not PK analysis, were obtained at a minimum every 2 h. Meal PK/PD analysis samples were acquired immediately pre-bolus and for 4–6 h post-bolus for breakfast and lunch meals, with a higher frequency during the first 2 h to capture insulin and BG peak levels {Post-bolus breakfast time points (min): 0, 10, 15, 20, 25, 30, 35, 40, 45, 50, 55, 60, 65, 70, 80, 90, 120, 150, 180, 210, 240, 300, 330, 360; Post-bolus lunch time points (min): 0, 10, 20, 30, 40, 50, 60, 70, 80, 90, 120, 180, 240, 300}. Sampling times were based on previous clinical study experience for bolus microneedle insulin delivery and had increased sampling frequency in the first 90 min post-delivery to capture the rapid insulin peaks from microneedle ID delivery. Blood samples for evening meal and basal period PK assessment could not be obtained due to daily blood draw volume limits for patient safety. Serum insulin aspart was measured by a third party laboratory (IKFE GmbH, Mainz, Germany) using a validated insulin assay (Invitron ELISA kit). […]

[1] = 0–1 h, Days 1–3 combined, all test meals, n = 150–156
[2] = 0–1 h, across all study days and meals
[3] = 0–1.5 h, Days 1–3 combined, all test meals, n = 150–156
[4] = 0–1.5 h, across all study days and meals
[5] = 0–2 h, Days 1–3 combined, all test meals, n = 150–156
[6] = 0–2 h, across all study days and meals
[7] = 0–4 h, Days 1–3 combined, all test meals, n = 150–156
[8] = Days 1–3 combined, all test meals, n = 150–156

In the case of insulin aspart, the “BGavg0–1” value (0–1 h, Day 1, across meals) is reported as 135 ± 45.9 mg/dL, the “BGmax0–1” value (0–1 h, Day 1, across meals) is reported as 159 ± 53.1 mg/dL and the “ΔAUC-BG0–1” value (0–1 h, Day 1, across meals) is reported as 17.2 ± 22.3 mg·h/dL. For the same substance, the “ΔBGmax0–1” value (0–1 h, Day 1, across meals) was 41.3 ± 32.1 mg/dL, the “BGavg0–1” value (0–1 h, Day 2, across meals) was 138 ± 37.4 mg/dL and the “BGmax0–1” value (0–1 h, Day 2, across meals) was 162 ± 43.0 mg/dL. The “ΔAUC-BG0–1” value (0–1 h, Day 2, across meals) was 18.7 ± 22.0 mg·h/dL, the “ΔBGmax0–1” value (0–1 h, Day 2, across meals) was 43.1 ± 30.2 mg/dL and the “BGavg0–1” value (0–1 h, Day 3, across meals) was 136 ± 37.3 mg/dL. For the same substance, the “BGmax0–1” value (0–1 h, Day 3, across meals) was 162 ± 41.5 mg/dL, the “ΔAUC-BG0–1” value (0–1 h, Day 3, across meals) was 18.5 ± 19.2 mg·h/dL and the “ΔBGmax0–1” value (0–1 h, Day 3, across meals) was 44.2 ± 28.1 mg/dL. The “BGavg0–1” value [1] was 136 ± 40.5 mg/dL, the “BGmax0–1” value [1] was 161 ± 46.2 mg/dL and the “ΔAUC-BG0–1” value [1] was 18.1 ± 21.2 mg·h/dL. For the same substance, the “ΔBGmax0–1” value [1] was 42.8 ± 30.1 mg/dL, the “Intra-subject variability of BGavg” value [2] was 26.3 %CV and the “Intra-subject variability of BGmax” value [2] was 25.2 %CV. The “BGavg0–1.5” value (0–1.5 h, Day 1, across meals) was 137 ± 42.1 mg/dL, the “BGmax0–1.5” value (0–1.5 h, Day 1, across meals) was 160 ± 46.8 mg/dL and the “ΔAUC-BG0–1.5” value (0–1.5 h, Day 1, across meals) was 32.4 ± 41.7 mg·h/dL. The “ΔBGmax0–1.5” value (0–1.5 h, Day 1, across meals) was 45.0 ± 34.5 mg/dL, the “BGavg0–1.5” value (0–1.5 h, Day 2, across meals) was 144 ± 39.9 mg/dL and the “BGmax0–1.5” value (0–1.5 h, Day 2, across meals) was 169 ± 45.6 mg/dL. For the same substance, the “ΔAUC-BG0–1.5” value (0–1.5 h, Day 2, across meals) was 36.8 ± 40.8 mg·h/dL, the “ΔBGmax0–1.5” value (0–1.5 h, Day 2, across meals) was 49.5 ± 33.5 mg/dL and the “BGavg0–1.5” value (0–1.5 h, Day 3, across meals) was 143 ± 40.2 mg/dL. The “BGmax0–1.5” value (0–1.5 h, Day 3, across meals) was 172 ± 45.0 mg/dL, the “ΔAUC-BG0–1.5” value (0–1.5 h, Day 3, across meals) was 39.3 ± 36.8 mg·h/dL and the “ΔBGmax0–1.5” value (0–1.5 h, Day 3, across meals) was 54.8 ± 34.2 mg/dL. For the same substance, the “BGavg0–1.5” value [3] was 141 ± 40.6 mg/dL, the “BGmax0–1.5” value [3] was 167 ± 45.8 mg/dL and the “ΔAUC-BG0–1.5” value [3] was 36.0 ± 39.8 mg·h/dL. The “ΔBGmax0–1.5” value [3] was 49.5 ± 34.1 mg/dL, the “Intra-subject variability of BGavg” value [4] was 25.6 %CV and the “Intra-subject variability of BGmax” value [4] was 24.5 %CV. For the same substance, the “BGavg0–2” value (0–2 h, Day 1, across meals) was 139 ± 43.8 mg/dL, the “BGmax0–2” value (0–2 h, Day 1, across meals) was 165 ± 47.8 mg/dL and the “ΔAUC-BG0–2” value (0–2 h, Day 1, across meals) was 47.8 ± 63.1 mg·h/dL. The “ΔBGmax0–2” value (0–2 h, Day 1, across meals) was 49.4 ± 36.7 mg/dL, the “BGavg0–2” value (0–2 h, Day 2, across meals) was 146 ± 41.9 mg/dL and the “BGmax0–2” value (0–2 h, Day 2, across meals) was 171 ± 46.5 mg/dL. For the same substance, the “ΔAUC-BG0–2” value (0–2 h, Day 2, across meals) was 53.9 ± 61.9 mg·h/dL, the “ΔBGmax0–2” value (0–2 h, Day 2, across meals) was 52.2 ± 33.7 mg/dL and the “BGavg0–2” value (0–2 h, Day 3, across meals) was 148 ± 41.8 mg/dL. For the same substance, the “BGmax0–2” value (0–2 h, Day 3, across meals) was 176 ± 44.9 mg/dL, the “ΔAUC-BG0–2” value (0–2 h, Day 3, across meals) was 62.8 ± 56.3 mg·h/dL and the “ΔBGmax0–2” value (0–2 h, Day 3, across meals) was 59.5 ± 34.9 mg/dL. The “BGavg0–2” value [5] was 144 ± 42.4 mg/dL, the “BGmax0–2” value [5] was 170 ± 46.4 mg/dL and the “ΔAUC-BG0–2” value [5] was 54.5 ± 60.6 mg·h/dL. The “ΔBGmax0–2” value [5] was 53.5 ± 35.2 mg/dL, the “Intra-subject variability of BGavg” value [6] was 25.9 %CV and the “Intra-subject variability of BGmax” value [6] was 23.8 %CV. For the same substance, the “BGavg0–4” value (0–4 h, Day 1, across meals) was 141 ± 44.0 mg/dL, the “BGmax0–4” value (0–4 h, Day 1, across meals) was 178 ± 49.1 mg/dL and the “ΔAUC-BG0–4” value (0–4 h, Day 1, across meals) was 105 ± 148 mg·h/dL. The “ΔBGmax0–4” value (0–4 h, Day 1, across meals) was 64.0 ± 43.6 mg/dL, the “BGavg0–4” value (0–4 h, Day 2, across meals) was 148 ± 41.3 mg/dL and the “BGmax0–4” value (0–4 h, Day 2, across meals) was 186 ± 43.2 mg/dL. The “ΔAUC-BG0–4” value (0–4 h, Day 2, across meals) was 120 ± 140 mg·h/dL, the “ΔBGmax0–4” value (0–4 h, Day 2, across meals) was 69.4 ± 36.8 mg/dL and the “BGavg0–4” value (0–4 h, Day 3, across meals) was 156 ± 45.0 mg/dL. The “BGmax0–4” value (0–4 h, Day 3, across meals) was 188 ± 49.8 mg/dL, the “ΔAUC-BG0–4” value (0–4 h, Day 3, across meals) was 156 ± 140 mg·h/dL and the “ΔBGmax0–4” value (0–4 h, Day 3, across meals) was 70.4 ± 42.2 mg/dL. For the same substance, the “BGavg0–4” value [7] was 148 ± 43.6 mg/dL, the “BGmax0–4” value [7] was 184 ± 47.4 mg/dL and the “ΔAUC-BG0–4” value [7] was 126 ± 144 mg·h/dL. For the same substance, the “ΔBGmax0–4” value [7] was 67.8 ± 40.8 mg/dL, the “Intra-subject variability of BGmax” value (0–4 h, across all study days and meals) was 21.1 %CV and the BG1 (Day 1, across meals) was 151 ± 56.0 mg/dL. It also gave a ΔBG1 (Day 1, across meals) of 33.3 ± 38.2 mg/dL, a BG1 (Day 2, across meals) of 155 ± 45.8 mg/dL and a ΔBG1 (Day 2, across meals) of 35.8 ± 35.4 mg/dL. For the same substance, the BG1 (Day 3, across meals) was 156 ± 45.2 mg/dL, the ΔBG1 (Day 3, across meals) was 38.2 ± 32.9 mg/dL and the BG1 [8] was 154 ± 49.3 mg/dL. It also gave a ΔBG1 [8] of 35.6 ± 35.5 mg/dL, a BG1.5 (Day 1, across meals) of 146 ± 52.2 mg/dL and a ΔBG1.5 (Day 1, across meals) of 31.0 ± 44.4 mg/dL. For the same substance, the BG1.5 (Day 2, across meals) was 155 ± 51.4 mg/dL, the ΔBG1.5 (Day 2, across meals) was 35.8 ± 44.4 mg/dL and the BG1.5 (Day 3, across meals) was 163 ± 51.3 mg/dL. The ΔBG1.5 (Day 3, across meals) was 45.7 ± 41.2 mg/dL, the BG1.5 [8] was 154 ± 51.8 mg/dL and the ΔBG1.5 [8] was 37.2 ± 43.6 mg/dL. For the same substance, the BG2 (Day 1, across meals) was 145 ± 54.5 mg/dL, the ΔBG2 (Day 1, across meals) was 30.2 ± 48.5 mg/dL and the BG2 (Day 2, across meals) was 152 ± 51.9 mg/dL. For the same substance, the ΔBG2 (Day 2, across meals) was 33.1 ± 46.1 mg/dL, the BG2 (Day 3, across meals) was 165 ± 50.5 mg/dL and the ΔBG2 (Day 3, across meals) was 48.0 ± 43.3 mg/dL. For the same substance, the BG2 [8] was 154 ± 52.7 mg/dL, the ΔBG2 [8] was 36.7 ± 46.5 mg/dL and the BG4 (Day 1, across meals) was 145 ± 52.1 mg/dL. For the same substance, the ΔBG4 (Day 1, across meals) was 29.3 ± 54.1 mg/dL, the BG4 (Day 2, across meals) was 147 ± 55.5 mg/dL and the ΔBG4 (Day 2, across meals) was 28.0 ± 55.7 mg/dL. For the same substance, the BG4 (Day 3, across meals) was 160 ± 60.1 mg/dL, the ΔBG4 (Day 3, across meals) was 43.6 ± 54.8 mg/dL and the BG4 [8] was 150 ± 55.9 mg/dL. For the same substance, the ΔBG4 [8] was 33.3 ± 54.9 mg/dL, the “BG at 1 h” value (p = 0.0121 vs SC) was 154 and the “Intra-subject variability of BG” value (time 1 h, across all study days and meals) was 29.1 %CV. For the same substance, the “Intra-subject variability of BG” value (time 1.5 h, across all study days and meals) was 31.5 %CV and the “Intra-subject variability of ΔBG” value (time 2 h, across all study days and meals) was 90.2 %CV.
